Laboratory results taken from patent US9920295B2, “Bioreactor for isolation of rare cells and methods of use” (The Trustees of the University of Pennsylvania, priority 2012, dated 2018).
Where two headings read alike, the source gives them in different places.

How the values were obtained:
BM CD34+-derived cells = assay: Micropipette aspiration of CD34+-derived cells; assay type: cell-based, human
Experimental: Cells from BMCD34^+, cultured in SCF and Tpo between 3 and 8 days, were treated with 20 μM blebbistatin for 30 min to 1 h, followed by micropipette analysis. Capillary tubes of 1.0-mm inner diameter (World Precision Instruments) were pulled into micropipettes using a Flaming-Brown Micropipette Puller (Sutter Instrument) and cut further using a deFonbrune-type microforge (Vibratome). The average micropipette diameter was around 3 μm. Micropipettes were attached to a dual-stage water manometer with reservoirs of adjustable height. Suction was applied by a syringe, and the corresponding pressure was measured by pressure transducer (Validyne), calibrated by a mercury U-tube manometer. Pressures for different experiments ranged from 0.5 to 20 kPa. In some cases, cells were labeled with a very low dose (10 nM) of fluorescent BODIPY-Taxol (Invitrogen) for 1 h at 37° C. to visualize the initial stage of microtubule polymerization during micropipette aspiration.

MKs = assay: Proplatelet extension quantification; assay type: cell-based, human
Experimental: Three-dimensional collagen gels embedded with cells were prepared as previously published (Rhee et al., 2007, Proc Natl Acad Sci USA, 104:5425-5430). BM-derived cells were added to the collagen solution prepared by neutralizing 2.0 mg/mL collagen-I (BD Biosciences) with HSC expansion media adjusted to appropriate the pH, so that cells could be embedded to the polymerized matrices (1×10^5 cells/mL). Next, 200 μL of this collagen mixture was placed in a well of 24-well plate and incubated at 37° C. 5% CO2 overnight before being formaldehyde-fixed and processed for microscopic analysis. Washing steps were done gently using pipette to minimize disturbance of gels. After completion of staining, matrices were released from the plate by gentle shaking and transferred to glass slides in mounting medium with either a spatula or gentle pipetting.
Cells on coverslips were fixed with 4% paraformaldehyde, followed by permeabilization with 0.5% Triton X-100 in PBS for 15 min and blocking with 1% BSA in PBS for 30 min. Samples were then stained with primary antibodies (1:100 for all antibodies used) overnight at 4° C. After washing, staining with appropriate Alexa-conjugated secondary antibodies (1:400) was performed for 45 min at room temperature. Cells were washed three times with PBS and mounted in ProLong Gold antifade medium (Invitrogen). Samples were then analyzed by fluorescence microscopy. For quantitative analysis, pictures from each experiment were taken under a defined set of exposure times on the same day with 40× objectives. Intensity of labeled NMM-II proteins for each cell was analyzed by ImageJ by subtracting a background, defining a threshold of cell boundary, followed by calculation of mean intensity. At least 10 images from each experiment were analyzed from three independent experiments. For proplatelet quantification, the process length from each cell was measured by manual tracing with ImageJ. Only processes above detection limit (≥1 μm in length from cell body) were considered for statistical analysis.

αIIbβ3 = target: T1, αIIbβ3 (Homo sapiens, UniProt P05106+P08514); assay: Platelet activation assay, PAC-1 binding; assay type: cell-based; settings: thrombin 1 U/mL
T1 construct: endogenous in cells; host or cells: platelet-like fragments from megakaryocytes cultured from human bone-marrow CD34+ cells
T1 sequence (P08514 32-887 limits assumed): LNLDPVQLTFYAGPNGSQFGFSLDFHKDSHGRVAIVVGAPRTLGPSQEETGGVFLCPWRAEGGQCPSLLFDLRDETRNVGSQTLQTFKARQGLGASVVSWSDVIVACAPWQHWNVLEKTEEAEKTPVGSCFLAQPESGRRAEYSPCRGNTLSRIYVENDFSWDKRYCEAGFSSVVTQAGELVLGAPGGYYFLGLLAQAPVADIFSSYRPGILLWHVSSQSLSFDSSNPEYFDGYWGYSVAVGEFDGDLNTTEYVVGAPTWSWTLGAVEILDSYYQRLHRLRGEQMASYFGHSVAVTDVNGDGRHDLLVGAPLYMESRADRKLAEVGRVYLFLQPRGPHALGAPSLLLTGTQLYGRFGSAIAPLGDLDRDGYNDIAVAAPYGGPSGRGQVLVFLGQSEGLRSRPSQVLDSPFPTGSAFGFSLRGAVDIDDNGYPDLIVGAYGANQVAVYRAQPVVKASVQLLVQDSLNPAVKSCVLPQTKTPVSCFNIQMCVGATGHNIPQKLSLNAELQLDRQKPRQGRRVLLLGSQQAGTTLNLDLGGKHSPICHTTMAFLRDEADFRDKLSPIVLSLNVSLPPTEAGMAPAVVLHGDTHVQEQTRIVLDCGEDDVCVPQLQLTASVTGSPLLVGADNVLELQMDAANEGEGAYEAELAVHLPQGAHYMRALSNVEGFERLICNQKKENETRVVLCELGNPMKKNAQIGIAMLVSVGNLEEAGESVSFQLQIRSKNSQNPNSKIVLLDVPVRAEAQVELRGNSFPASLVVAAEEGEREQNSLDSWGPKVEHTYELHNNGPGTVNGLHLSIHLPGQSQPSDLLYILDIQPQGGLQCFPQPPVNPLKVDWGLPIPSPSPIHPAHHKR
T1 sequence (P08514 891-1039 partner limits assumed): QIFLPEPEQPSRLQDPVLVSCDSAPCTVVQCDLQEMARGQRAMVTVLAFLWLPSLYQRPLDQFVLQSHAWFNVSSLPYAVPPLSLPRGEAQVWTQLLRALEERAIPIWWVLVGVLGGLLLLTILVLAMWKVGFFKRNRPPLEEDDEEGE
T1 sequence (P05106 27-788): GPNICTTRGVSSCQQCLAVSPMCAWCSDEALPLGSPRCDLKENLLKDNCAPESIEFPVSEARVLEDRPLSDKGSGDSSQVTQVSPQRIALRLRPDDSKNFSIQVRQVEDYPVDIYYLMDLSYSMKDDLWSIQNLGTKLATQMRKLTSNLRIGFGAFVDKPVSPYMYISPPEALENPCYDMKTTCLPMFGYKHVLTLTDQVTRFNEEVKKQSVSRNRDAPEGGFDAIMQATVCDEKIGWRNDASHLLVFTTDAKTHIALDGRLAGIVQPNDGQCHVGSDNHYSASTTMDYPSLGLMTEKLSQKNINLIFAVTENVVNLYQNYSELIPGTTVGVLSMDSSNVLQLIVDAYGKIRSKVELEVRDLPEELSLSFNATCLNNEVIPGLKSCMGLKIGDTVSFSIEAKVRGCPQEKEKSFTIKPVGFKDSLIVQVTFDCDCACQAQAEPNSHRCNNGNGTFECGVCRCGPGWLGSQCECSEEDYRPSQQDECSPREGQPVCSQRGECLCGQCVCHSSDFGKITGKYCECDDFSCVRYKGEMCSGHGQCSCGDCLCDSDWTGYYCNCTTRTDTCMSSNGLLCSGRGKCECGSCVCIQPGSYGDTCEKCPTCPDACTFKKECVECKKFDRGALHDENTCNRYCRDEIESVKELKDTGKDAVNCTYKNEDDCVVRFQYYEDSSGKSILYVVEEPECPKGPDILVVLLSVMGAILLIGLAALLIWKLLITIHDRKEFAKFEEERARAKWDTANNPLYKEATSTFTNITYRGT
Experimental: For platelet-activation assays, platelet-sided fraction isolated from either MK culture or NSG blood was resuspended in Tyrode's buffer supplemented with Mg^2+ and Ca^2+, and incubated with indicated agonists for 15 min at 37° C., followed by staining with FITC-conjugated anti-human P-selectin or PAC-1 antibody (BD Bioscience), APC-conjugated anti-human CD41, and in the case of xenograft samples, PE-conjugated anti-mouse CD41 for 15 min at room temperature, followed by fixation with 1.5% paraformaldehyde. Antibody-stained samples were then analyzed by flow cytometry. Platelet number was evaluated by mixing each sample with a defined number (˜10,000 beads per sample) of APC-conjugated beads (BD Bioscience). The number of platelets per sample was evaluated by: number of CD41^+ events/number of APC-bead events multiplied by total known number of APC-bead added per sample.

[1] = test system: CD34+-derived cells (CFU-GM, BFU-E); assay: Colony forming assay; assay type: cell-based, human
Experimental: 1000-3000 CD34^+-derived cells were seeded into methylcellulose containing media (MethoCult H4434, StemCell Technologies) supplemented with SCF, GM-CSF, IL-3, Epo. They were cultured for 14 days and colonies were scored at 10× magnification based on the published morphological criteria by StemCell Technoloigies. Colony forming content was normalized per 10,000 cells seeded.

[2] = test system: SCID-repopulating cells in NSG mice; assay: Engraftment in NSG mice and limiting dilution analysis; settings: mouse, in vivo
Experimental: BM-derived CD34^+ cells were cultured in SCF and Tpo (100 ng/ml each) for 4 days and treated under control conditions or Bleb (20 μM) for 3 days. The cells were injected intra-tibially into sub-lethally irradiated (250 rads) 6-10-week-old NSG mice within 24 hr after irradiation. Engraftment was assessed by analysis of blood or bone marrow using anti-mouse and anti-human CD47 antibodies using flow cytometry. The mice were sacrificed after sixteen weeks post-transplantation. For secondary engraftment, 50% of the bone marrow from femurs and tibias from each mouse was transplanted into one sub-lethally irradiated NSG mouse. 16 weeks after transplantation, blood and bone marrow were harvested from the mice and analyzed by flow cytometry. All animal experiments were done in accordance with institutional guidelines approved by the ethical committee from the University of Pennsylvania. The human repopulation HSC frequency was quantified by extreme limiting dilution analysis (ELDA) software (Hu and Smyth, 2009)

NMM-IIA pS1943 = assay: pS1943 of NMM-IIA by phospho-specific flow cytometry; assay type: cell-based, human; settings: under cytokine stimulation (SCF and Tpo)
Experimental: Cells were fixed with 4% paraformaldehyde in PBS for 10 min, washed with PBS and resuspended in 0.1% saponin in HBSS (staining medium). The samples were then stained with antibodies against cytoplasmic antigens, including NMM-IIA (Sigma), NMM-IIB, phospho-NMM-IIA and caspase-3 (all from Cell Signaling Technology) for 30 min at room temperature. In some cases, cells were concurrently stained with PE anti-CD34 or anti-human CD38 for subpopulation analysis. Cells were then washed and stained with anti-rabbit or mouse secondary antibodies conjugated with Alexa 647 (Invitrogen) for 30 min, followed by analysis on FACSCalibur.

Cc1ccc2c(c1)C(=O)C1(O)CCN(c3ccccc3)C1=N2 (racemic) [blebbistatin, (±)-blebbistatin]
median fragmentation threshold (effective membrane tension) (BM CD34+-derived cells; 20 μM): ~1 mN/m | compliance, median slope of aspiration length vs tension (BM CD34+-derived cells; 20 μM, unfragmented cells): 3.79±0.84 (mN/m)^−1 | increase in compliance (BM CD34+-derived cells; after 30 min): approximately four | treated cells that fragment (BM CD34+-derived cells; after 30 min): 40% | increase in mean length of proplatelet extensions (MKs; cells grown on plastic): approximately threefold | effect on proplatelet extensions (MKs; cells in 3D collagen gels or on stiff, osteoid-like matrices): no effect | average proplatelet extension velocity (MKs; live imaging): ~1 μm/min | PAC-1 binding of platelets derived from drug-exposed MKs (αIIbβ3): normal PAC-1 binding | concentration under which BFU-E and CFU-GEMM numbers are not changed [1]: ~15 µM | IC50 ([1]; SCF and Tpo, n≥3 donors, read-out: BFU-E IC50): 18.6 µM | IC50 ([1]; SCF and Tpo, n≥3 donors, read-out: CFU-GM IC50): 10.5 µM | concentration of maximum BFU-E relative to CFU-GM ratio ([1]; absence of Epo): 12.5 µM | IC50 ([1]; absence of Epo, n=3 donors, read-out: BFU-E relative to CFU-GM IC50): 10 µM | increase of BFU-E to CFU-GM ratio ([1]; at 12.5 μM): 2 fold | increase in HSC frequency in terms of total cell number injected [2]: 4 fold | effect on pS1943 level (NMM-IIA pS1943): inhibits the reduction of pS1943
